The record followed here is paper PMC6271893, “In Vitro Antioxidant and Cytotoxic Activity of Some Synthetic Riparin-Derived Compounds” (Molecules, 2014).

Data set [1] in a line: Scavenging activity of nitric oxide (nitrite production induced by SNP, Griess reaction). The conditions noted are these: for IC50 Nitrite: nitrite formation. As to the method: (§1) For the in vitro antioxidant tests the samples were emulsified in 0.05% Tween 80 dissolved in saline 0.9% (used as the vehicle) and tested at concentrations of 1, 5, 10, 25 and 100 µg/mL. The samples for the cytotoxicity tests were diluted in pure and sterile DMSO and tested at concentrations of 25 µg/mL.
Nitric oxide was generated from spontaneous decomposition of sodium nitroprusside in 20 mM phosphate buffer (pH 7.4). Once generated, NO interacts with oxygen to produce nitrite ions, which are measured by the Griess reaction. The reaction mixture (1 mL) containing 10 mM sodium nitroprusside (SNP) in phosphate buffer and the riparins at various concentrations of 1, 5, 10, 25 and 100 µg/mL were incubated at 37 °C for 1 h. A 0.5 mL aliquot was taken and homogenized with 0.5 mL Griess reagent. The absorbance of chromophore was measured at 540 nm. Percent inhibition of generated nitric oxide was measured by comparing the absorbance values of negative controls (only 10 mM sodium nitroprusside and vehicle) to assay preparations. Results were expressed as percentage of nitrite formed by SNP alone.

Data set [2] deals with HEP-2 (laryngeal carcinoma). The data set is described as follows: Cytotoxicity against tumor cell lines (MTT). The data set is classed as cell-based. Particulars: Homo sapiens, 72 h, 95% confidence interval in brackets, read-out: IC50 values and confidence intervals, HEP-2. As to the method: (§2) Cells were maintained at 37 °C with 5% CO2 in RPMI 1640 (Himedia^TM, Mumbai, India) or DMEM medium (Gibco^TM, Grand Island, NY, USA) supplemented with 2 mM glutamine, 100 U/mL penicillin, 100 μg/mL streptomycin. The antiproliferative activities of riparins were evaluated in the following human cancer cells lineage: HL-60 (pro-myelocytic leukemia), NCIH-292 (lung carcinoma), and HEP-2 (laryngeal carcinoma) obtained from the Rio de Janeiro Cell Bank (RJ-Brazil). For all experiments, 100 µL of tumor cells were plated in 96-well plates (6 × 10^4 cells/cm^2 for adherent cells or 9 × 10^4 cells/cm^2 for leukemia). Tested compounds (0.1–25 μg/mL) dissolved in 1% DMSO (100 µL) were added to each well and incubated for 72 h. Control groups received the same amount of DMSO. After 69 h of treatment, 25 μL of MTT (5 mg/mL) were added. Three hours later, the MTT formazan product was dissolved in 100 μL of DMSO, and absorbance was measured at 595 nm using a multiplate reader (Thermo Plate®, TP Reader, São Paulo, SP, Brasil).
(§3) The obtained data were evaluated by one-way analysis of variance (ANOVA) followed by a Student Newman Keuls post hoc test. The data concerning release percentage of cytoplasmatic enzyme lactate dehydrogenase (LDH) were reported by mean ± standard deviation and evaluated by one-way analysis of variance (ANOVA) followed by a Tukey post hoc test. In all cases differences were considered significant if p < 0.05, the means and respective standard errors were analyzed in the Graph Pad Prism version 5.0 for Windows software (GraphPad Software Incorporated, San Diego, CA, USA).

Data set [3] relates to NCIH-292 (lung carcinoma). The data set is described as follows: Cytotoxicity against tumor cell lines (MTT). The data set is classed as cell-based. The conditions noted are these: Homo sapiens, NCI-H292, 72 h, 95% confidence interval in brackets, read-out: IC50 values and confidence intervals, NCIH-292. On the procedure:
as §2, §3

Data set [4] relates to HL-60 (pro-myelocytic leukemia). In words: Cytotoxicity against tumor cell lines (MTT). Particulars: Homo sapiens, 72 h, 95% confidence interval in brackets, read-out: IC50 values and confidence intervals, HL-60. Format: cell-based. As to the method: as §2, §3
Data set [5] in a line: Hydroxyl radical scavenging activity (2-deoxyribose degradation, Fenton reaction). The conditions noted are these: for IC50 OH radical: hydroxyl radical content. As to the method:
as §1
The formation of OH radicals from Fenton reagents was quantified using the condensation product of the 2-deoxyribose oxidative degradation product, malonaldehyde, with 2-thiobarbituric acid (TBA). Briefly, typical reactions were started by the addition of Fe^2+ (FeSO4 6 mM final concentration) to solutions containing 5 mM 2-deoxyribose, 100 mM H2O2 and 20 mM phosphate buffer (pH 7.2). In order to determine the antioxidant activity of the riparins against the hydroxyl radical, individual tests were performed on each one of the six substances, in which different concentrations of the riparins were added to the system before Fe^2+ addition (Rip-A; Rip-B; Rip-C; Rip-D; Rip-E and Rip-F). Reactions were carried out for 15 min at room temperature and were quenched by the addition of phosphoric acid 4% (v/v), followed by TBA 1% (thiobarbituric acid, v/v in 50 μL NaOH). The solutions were boiled for 15 min to 95 °C and then cooled at room temperature. The absorbance was measured at 532 nm and the results were expressed as MDA equivalents formed by Fe^2+ and H2O2 [25].

Data set [6] is described as follows: Antioxidant potential against the formation of TBARS (AAPH-induced lipid peroxidation of egg yolk homogenate). The conditions noted are these: for IC50 TBARS: TBARS production. On the procedure:
as §1
The TBARS assay was employed to quantify lipid peroxidation and an adapted TBARS method was used to measure the antioxidant capacity of the riparins (Rip-A, -B, -C, -D, -E and -F) using egg yolk homogenate as lipid rich substrate. Egg yolk was homogenized (1% w/v) in 20 mM phosphate buffer (pH 7.4), 1 mL of homogenate was sonicated and then homogenized with 0.1 mL of the samples at concentrations of 1, 5, 10, 25 and 100 µg/mL. Lipid peroxidation was induced by the addition of 0.1 mL of 2,2'-azobis(2-methylpropionamidine) dihydrochloride solution (AAPH; 0.12 M). Control was evaluated with only the vehicle. Reactions were carried out for 15 minutes at 37 °C. After cooling, samples (0.5 mL) were centrifuged with 0.5 mL of trichloroacetic acid (15%) at 1,200 ×g for 10 min. An aliquot of 0.5 mL from supernatant was mixed with 0.5 mL TBA (0.67%) and heated at 95 °C for 30 min. After cooling, sample absorbance was measured using a spectrophotometer at 532 nm. The results were expressed as percentage of TBARS formed by AAPH alone (induced control).

The subject of data set [7] is murine peritoneal macrophages RAW 264.7. The data set is described as follows: Cytotoxicity assay on RAW 264.7 (LDH release). Format: cell-based. On the procedure: Murine peritoneal macrophages of the cell line RAW 264.7 were obtained from the American Type Culture Collection (ATCC, Rockville, MD, USA), and cultured at 37 °C with CO2 at 5% in DMEM-F12 supplemented with 10% fetal bovine serum (FBS; Hyclone^TM, Logan, UT, USA) and gentamicin (50 μg/mL). RAW 264.7 cells (5 × 10^5 cells/mL) were cultured and incubated for 24 h with the riparins A, B, C, D, E and F at the final concentration of 25 µg/mL […]. The cytotoxicity assay was performed by LDH assay. The release of LDH (cytoplasmic lactate dehydrogenase enzyme) was determined using 50 μL of culture supernatant with 100 μL of LDH substrate plus and 5 μL ferric alum (5 mg/mL), at 37 °C for 3 min. Then, 100 μL of the NAD solution and phenazine methosulphate were added to the mixture, maintaining the temperature at 37 °C for 5 min (Labrax Commercial Kit, Clontech, Palo Alto, CA, USA). LDH is an oxidoreductase which catalyzes the interconversion of lactate and pyruvate and, for being a stable cytosolic enzyme, after damage to cell membrane it is released in the cellular environment and because of this LDH is an indirect indicator of cytotoxicity. LDH concentration was determined by colorimetry at 492 nm. The specific release of LDH was calculated as percentage of the controls (not treated cells as negative control and cells treated with 1%Triton X-100 as positive control).
as §3
A general note: LDH leaks from cells whose membrane has failed.

For data set [8], the system named is tumor cells lines (leukemia and lung and laryngeal carcinoma). The data set is described as follows: Cytotoxicity on tumor cell lines, summary statements over the lines (MTT). The data set is classed as cell-based. Particulars: Homo sapiens. On the procedure: as §1, §2
[9] abbreviates: 140 μg/mL (standard antioxidant).

In brackets after ≈: the same amount, converted by molar mass. Read-outs that look alike come from different tables or passages of the source. Marks after values point to notes of the source that are not given here.

Turning to `O=C(NCCc1ccccc1)c1ccccc1` [Rip-A, N-Phenethylbenzamide], the “Nitrite Production (% induced by SNP)” value is reported as 75.1 ± 1.31 ^a % in data set [1] (1 μg/mL); 29.1 ± 0.61 ^a % in data set [1] (5 μg/mL); 29.2 ± 2.05 ^a % in [1] (10 μg/mL); 24.3 ± 0.62 ^a % in data set [1] (25 μg/mL); 20.4 ± 1.20 ^a % in data set [1] (100 μg/mL). In [1], the “IC50 Nitrite” value is 0.8404 µg/mL (≈ 3.73 µM). The IC50 in data set [2], in data set [3] and in [4] was more than 25 µg/mL in each case. Also, the “2-Deoxyribose degradation (%)” value in [5] (1 μg/mL) was 97.1 ± 0.78 ^a %; in [5] (5 μg/mL) it was 76.9 ± 1.10 ^a %; in data set [5] (10 μg/mL) it was 54.5 ± 0.85 ^a %; in data set [5] (25 μg/mL), 49.6 ± 0.89 ^a %; in data set [5] (100 μg/mL), 44.8 ± 0.30 ^a %. For the same compound, the “IC50 OH radical” value in data set [5] was found to be 1.501 µg/mL (≈ 6.66 µM). Further, the “TBARS levels (% AAPH)” value in data set [6] (1 μg/mL) is reported as 40.9 ± 1.77 ^a %; in data set [6] (5 μg/mL), 38.1 ± 0.49 ^a %; in data set [6] (10 μg/mL) it was 36.7 ± 0.66 ^a %; in [6] (25 μg/mL), 35.1 ± 0.88 ^a %; in data set [6] (100 μg/mL), 25.8 ± 0.48 ^a %. Besides, the “IC50 TBARS” value in [6] worked out at 1.147 µg/mL (≈ 5.09 µM). The “LDH % Release” value in data set [7] (25 µg/mL, RAW 264.7) worked out at 28.13%.
Turning to `O=C(NCCc1ccccc1)c1c(O)cccc1O` [Rip-E, 2,6-Dihydroxy-N-phenethylbenzamide], the melting point turned out to be 155 °C. In [1] (1 μg/mL), the “Nitrite Production (% induced by SNP)” value is reported as 65.9 ± 1.30 ^a %. For the same compound, the “Nitrite Production (% induced by SNP)” value in data set [1] (5 μg/mL) is reported as 37.7 ± 0.95 ^a %. Besides, the “Nitrite Production (% induced by SNP)” value in data set [1] (10 μg/mL) is on record as 25.1 ± 1.37 ^a %. In data set [1] (25 μg/mL), the “Nitrite Production (% induced by SNP)” value is reported as 20.1 ± 0.71 ^a %. Moreover, in data set [1] (100 μg/mL), the “Nitrite Production (% induced by SNP)” value is 15.4 ± 1.11 ^a %. Also, the “IC50 Nitrite” value in [1] amounted to 0.5224 µg/mL (≈ 2.03 µM). In addition, the IC50 in [3] is more than 25 µg/mL. For the same compound, the half-inhibitory concentration (IC50) in data set [4] turned out to be 1.9 µg/mL (≈ 7.38 µM). In data set [8] (leukemia and lung and laryngeal carcinoma, read-out: IC50 values on neoplastic cells (range over cell lines)), the IC50 lay in the range of 1.9 to 11.4 µg/mL (≈ 7.38 to 44.3 µM). Also, the inhibition at 25 µg/mL in data set [8] (tumor cells lines, cytotoxicity samples tested at 25 µg/mL, read-out: cell growth inhibition rates) was more than 70%. For the same compound, the “2-Deoxyribose degradation (%)” value in data set [5] (1 μg/mL) is 79.9 ± 0.64 ^a %. Also, in [5] (5 μg/mL), the “2-Deoxyribose degradation (%)” value is reported as 62.2 ± 2.14 ^a %. Moreover, the “2-Deoxyribose degradation (%)” value in data set [5] (10 μg/mL) is recorded as 53.4 ± 1.79 ^a %. For the same compound, in [5] (25 μg/mL), the “2-Deoxyribose degradation (%)” value was 51.4 ± 1.47 ^a %. The “2-Deoxyribose degradation (%)” value in data set [5] (100 μg/mL) was 49.4 ± 0.85 ^a %. In data set [5], the “IC50 OH radical” value turned out to be 1.054 µg/mL (≈ 4.1 µM). The “TBARS levels (% AAPH)” value in data set [6] (1 μg/mL) is 41.4 ± 0.69 ^a %. For the same compound, the “TBARS levels (% AAPH)” value in data set [6] (5 μg/mL) was 38.6 ± 0.63 ^a %. For the same compound, the “TBARS levels (% AAPH)” value in data set [6] (10 μg/mL) is 35.5 ± 0.37 ^a %. Besides, the “TBARS levels (% AAPH)” value in [6] (25 μg/mL) was 31.3 ± 0.76 ^a %. Also, in [6] (100 μg/mL), the “TBARS levels (% AAPH)” value is reported as 28.2 ± 0.39 ^a %. In addition, in [6], the “IC50 TBARS” value was found to be 0.7821 µg/mL (≈ 3.04 µM). In data set [7] (25 µg/mL, RAW 264.7), the “LDH % Release” value stood at 96.91%. For the same compound, the “LDH % Release” value in [7] (25 µg/mL, RAW 264.7, listed as riparin E) was “greater than 80%”.
As for `Cc1c(C)c2c(c(C)c1O)CCC(C)(C(=O)O)O2` (stereo not drawn) [Trolox, reference compound], the “Nitrite Production (% induced by SNP)” value in [1] (setting [9]) is 40.2 ± 2.80 ^a %. Besides, in [5] (setting [9]), the “2-Deoxyribose degradation (%)” value is 21.4 ± 0.95 ^a %. Besides, the “TBARS levels (% AAPH)” value in data set [6] (setting [9]) was 55.3 ± 6.48 ^a %.
“Triton X-100 [Triton X-100 1%, reference compound]”: the “LDH % Release” value in data set [7] came to 99.96%.

The term IC50 denotes the point on the concentration scale where inhibition reaches its midpoint. Usually inhibition stands for how much of the control response was suppressed. One may read the melting point as the temperature of the solid-liquid transition.
